Results published in ChEMBL document CHEMBL1201862, “PubChem BioAssay data set” (2004).
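Exposure lasted 48 hours, with cells grown in 96-well plates and compounds tested at five concentrations. Here, GI50 denotes the concentration required for 50% inhibition of growth.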 Activity calls are given as the source filed them. No stated cut-off is given here; in the data, active = GI50 up to about 1.1 µM and inactive = higher.

Tests used:
Experiment in all cases: inhibition of tumour cell growth, NCI panel, 48 h
HL-60 = tested on: HL-60
K562 = tested on: K562
CCRF-CEM = tested on: CCRF-CEM
HCT-15 = tested on: HCT-15
RXF 393 = tested on: RXF 393
NCI-H226 = tested on: NCI-H226
UACC-257 = tested on: UACC-257
SK-MEL-5 = tested on: SK-MEL-5
ACHN = tested on: ACHN
SNB-75 = tested on: SNB-75
A549 = tested on: A549
SW-620 = tested on: SW-620
HCT-116 = tested on: HCT-116
T47D = tested on: T47D
NCI/ADR-RES = tested on: NCI/ADR-RES
OVCAR-3 = tested on: OVCAR-3
SF-295 = tested on: SF-295
UACC-62 = tested on: UACC-62
HCC 2998 = tested on: HCC 2998
SN12C = tested on: SN12C

SMILES	GI50 (HL-60)	GI50 (K562)	GI50 (CCRF-CEM)	GI50 (HCT-15)	GI50 (RXF 393)	GI50 (NCI-H226)	GI50 (UACC-257)	GI50 (SK-MEL-5)	GI50 (ACHN)	GI50 (SNB-75)	GI50 (A549)	GI50 (SW-620)	GI50 (HCT-116)	GI50 (T47D)	GI50 (NCI/ADR-RES)	GI50 (OVCAR-3)	GI50 (SF-295)	GI50 (UACC-62)	GI50 (HCC 2998)	GI50 (SN12C)
CN(NC(=O)c1cccs1)C1=NCCCCN1	> 100 µM (inactive)	> 100 µM (inactive)	> 100 µM (inactive)	> 100 µM	> 100 µM (inactive)	> 100 µM (inactive)	> 100 µM (inactive)	> 100 µM (inactive)	> 100 µM (inactive)	> 100 µM (inactive)	> 100 µM (inactive)	> 100 µM (inactive)	> 100 µM (inactive)	> 100 µM (inactive)	> 100 µM (inactive)	> 100 µM (inactive)	> 100 µM (inactive)	> 100 µM (inactive)	> 100 µM (inactive)	–
CC(=O)c1c(=O)n(-c2ccc(C)cc2)c(O)c2c(N)n[nH]c12	> 100 µM (inactive)	> 100 µM (inactive)	> 100 µM (inactive)	> 100 µM	> 100 µM (inactive)	> 100 µM (inactive)	> 100 µM (inactive)	> 100 µM (inactive)	–	> 100 µM (inactive)	> 100 µM (inactive)	> 100 µM (inactive)	> 100 µM (inactive)	> 100 µM (inactive)	> 100 µM (inactive)	> 100 µM (inactive)	–	> 100 µM (inactive)	> 100 µM (inactive)	> 100 µM (inactive)
COc1cc([C@@H]2c3cc4c(cc3[C@@H](Nc3ccc([N+](=O)[O-])cc3C(=O)c3ccccc3)[C@H]3COC(=O)[C@H]23)OCO4)cc(OC)c1OC	0.211 µM (active)	0.156 µM (active)	0.391 µM (active)	0.269 µM	0.573 µM (active)	0.726 µM (active)	–	0.2 µM (active)	0.304 µM (active)	> 100 µM (inactive)	0.446 µM (active)	0.233 µM (active)	0.23 µM (active)	> 100 µM (inactive)	0.587 µM (active)	0.434 µM (active)	0.196 µM (active)	0.164 µM (active)	0.436 µM (active)	0.416 µM (active)
